{"source": "patent US20160138077A1", "about": "“MONITORING AND ASSESSING DEACETYLASE ENZYME ACTIVITY” (THE GENERAL HOSPITAL CORPORATION, priority 2013, published 2016)", "assay_type_in_all_cases": "biochemical", "key": {"HDAC1": {"biological_target": "T1, HDAC1 (Homo sapiens, UniProt Q13547)", "T1 construct": "purchased Cayman Chemicals", "T1 sequence (Q13547 whole entry, canonical isoform)": "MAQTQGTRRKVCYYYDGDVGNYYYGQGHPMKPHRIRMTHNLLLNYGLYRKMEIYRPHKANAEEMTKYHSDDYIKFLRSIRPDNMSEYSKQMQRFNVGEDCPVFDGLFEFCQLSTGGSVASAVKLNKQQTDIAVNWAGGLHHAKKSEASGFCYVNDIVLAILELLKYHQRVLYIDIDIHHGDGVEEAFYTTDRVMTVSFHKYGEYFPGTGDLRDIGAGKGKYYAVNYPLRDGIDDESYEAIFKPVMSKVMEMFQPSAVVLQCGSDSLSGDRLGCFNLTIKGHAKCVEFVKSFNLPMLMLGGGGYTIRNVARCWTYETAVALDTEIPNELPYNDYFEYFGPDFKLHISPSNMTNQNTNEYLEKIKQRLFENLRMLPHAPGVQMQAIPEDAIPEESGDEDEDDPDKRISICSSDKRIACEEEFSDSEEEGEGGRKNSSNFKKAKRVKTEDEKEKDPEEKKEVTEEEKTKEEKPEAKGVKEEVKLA", "experiment": "LCMS characterization of enzymatic deacetylation by HDAC1", "settings": "5 μM probe, 12 hours at 37° C.", "experimental": "The enzymatic cleavage of HP-1 and HP-2 was analyzed by performing LCMS assays with HeLa nuclear extract (AnaSpec), HeLa whole cell lysate (Santa Cruz Inc.), and the following purified HDAC isoforms: 1, 2, 3, 6 and 8 (HDAC1, 3 and 8 from Cayman Chemicals and HDAC2 and 6 provided by Dr. Stephen Haggarty). Solutions containing (i) vehicle with DMSO in HDAC buffer, (ii) 5 μM probe in HDAC buffer, (iii) 5 μM probe and HDAC enzyme/HeLa nuclear extract/HeLa whole cell lysate in HDAC buffer, or (iv) 5 μM probe and HDAC enzyme/HeLa nuclear extract/HeLa whole cell lysate pre-incubated with 10 μM SAHA (Provided by Dr. Stephen Haggarty) in HDAC buffer were incubated for 12 hours at 37° C. Following incubation, a 20 μL aliquot of supernatant from each sample was analyzed by LCMS. […] For HP-1, the (M+H)^+ ion for the corresponding aldehyde (8, DHP-1) was detected, which formed following reaction of the initial imine deacetylation product with water. […] The peak area for each detected compound was measured to determine the % deacetylation of each probe. All assay samples were analyzed in triplicate. […]\nLCMS characterization of HDAC enzymatic action on HP-1 and HP-2. […] Following incubation, an aliquot of supernatant from each sample was analyzed by LCMS. […] The peak area for each detected compound was measured to determine the % deacetylation of each probe (full experimental details in Example 1)."}, "HDAC8": {"biological_target": "T2, HDAC8 (Homo sapiens, UniProt Q9BY41)", "T2 construct": "purchased Cayman Chemicals", "T2 sequence (Q9BY41 1-377)": "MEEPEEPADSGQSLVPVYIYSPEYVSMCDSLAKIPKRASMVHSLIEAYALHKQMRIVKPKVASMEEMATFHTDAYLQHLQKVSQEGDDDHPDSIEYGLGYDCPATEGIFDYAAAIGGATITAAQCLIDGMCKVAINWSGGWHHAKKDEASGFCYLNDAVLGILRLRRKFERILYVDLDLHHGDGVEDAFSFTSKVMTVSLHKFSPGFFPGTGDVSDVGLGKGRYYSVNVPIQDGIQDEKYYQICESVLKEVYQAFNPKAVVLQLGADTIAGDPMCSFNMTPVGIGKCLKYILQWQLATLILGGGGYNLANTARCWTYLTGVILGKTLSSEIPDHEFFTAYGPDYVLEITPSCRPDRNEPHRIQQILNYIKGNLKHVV", "experiment": "Caliper microfluidic endpoint IC50 assay", "experimental": "(§1) HP-1 and HP-2 IC50 values for HDAC1 were determined using the Trypsin-coupled assay as well as the Caliper endpoint assay. HP-1 and HP-2 IC50 values for HDAC2, HDAC3, HDAC6 and HDAC8 were determined with the Caliper endpoint assay.\n(§2) The Caliper microfluidic assay was performed at the Broad Institute exactly as previously described.^5\n(§3) IC50 measurements. HP-1 and HP-2 IC50 values for HDAC1 were determined using the Trypsin-coupled assay as well as the Caliper endpoint assay. HP-1 and HP-2 IC50 values for HDAC2, HDAC3, HDAC6 and HDAC8 were determined with the Caliper endpoint assay (full experimental details in Example 1)."}, "HDAC2": {"biological_target": "HDAC2 (Homo sapiens, UniProt Q92769)", "sequence (Q92769 whole entry, species assumed)": "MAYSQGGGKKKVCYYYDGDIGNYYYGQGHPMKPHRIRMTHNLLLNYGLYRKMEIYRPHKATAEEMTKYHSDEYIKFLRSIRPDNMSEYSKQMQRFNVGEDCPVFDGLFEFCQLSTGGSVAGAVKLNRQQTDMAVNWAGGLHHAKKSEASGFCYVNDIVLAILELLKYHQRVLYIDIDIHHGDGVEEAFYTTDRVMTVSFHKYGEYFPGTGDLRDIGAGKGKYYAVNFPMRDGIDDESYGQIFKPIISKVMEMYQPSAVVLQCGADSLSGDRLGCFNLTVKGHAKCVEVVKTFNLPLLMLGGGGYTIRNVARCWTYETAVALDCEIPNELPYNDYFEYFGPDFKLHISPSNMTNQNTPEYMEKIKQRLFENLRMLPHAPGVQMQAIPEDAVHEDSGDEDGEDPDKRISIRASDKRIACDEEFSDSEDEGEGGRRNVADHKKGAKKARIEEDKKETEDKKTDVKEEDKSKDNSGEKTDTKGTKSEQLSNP", "experiment": "Caliper microfluidic endpoint IC50 assay", "experimental": "as §1, §2, §3"}}}
{"smiles": "CC(=O)NC=CCCCCNC(=O)CCCCCNc1ccc([N+](=O)[O-])c2nonc12", "note": "[HP-1]", "values": [{"measurement": "% HP-1 to DHP-1", "setting": "HDAC1; HDAC1, +SAHA (10 μM pre-incubated)", "result": 0, "unit": "%"}, {"measurement": "% HP-1 to DHP-1", "setting": "HDAC1; HDAC1, −SAHA, maximum detected conversion, 1.5:1 trans:cis mixture", "result": 15, "unit": "%"}, {"measurement": "IC50", "setting": "HDAC8", "result": "> 70", "unit": "µM"}, {"measurement": "IC50", "setting": "HDAC2", "result": "> 70", "unit": "µM"}]}
